Laboratory results as given in patent publication US8551964B2, “Hsp90 inhibitors with modified toxicity” (The Regents of the University of Colorado, priority 2007, dated 2013).
One block for each compound: values may come before it.

What was measured:
[1] = Interaction of BA Hsp90 inhibitors with reduced glutathione (HPLC, LC-MS, [3H] glutathione)
Description: GM-glutathione conjugate formation was analyzed by HPLC and LC-MS. Briefly, 50 μM GM, 500 μM NADH, and 5 mM glutathione in the absence and presence of 11.8 μg rh-NQO1 and in the absence or presence of 2 μM ES936, were incubated in 50 mM potassium phosphate buffer, pH 7.4 (1 ml) at room temperature for 5 min. GM-glutathione conjugate formation was analyzed by HPLC at 270 nm (5 min).
Reaction conditions were: 50 μM 17DMAG, 500 μM NADH, and 5 mM glutathione, in the absence and presence of 11.8 μg rhNQO1 and in the absence or presence of 2 μM ES936, were incubated in 50 mM potassium phosphate buffer, pH 7.4 (1 ml) at room temperature for 3 h. 17DMAG-glutathione conjugate formation was analyzed by HPLC at 270 nm (3 h).
Reaction conditions were: 50 μM BA and 5 mM GSH were incubated in 50 mM potassium phosphate buffer, pH 7.4 (1 ml) at room temperature in the absence and presence of 11.8 μg of rhNQO1 and 500 μM NADH. BA-GSH conjugate formation was analyzed by HPLC at 270 nm and further confirmed by LC-MS. The amount of BA glutathione conjugate formation was quantified using [3H] glutathione.

[2] = target: T1, purified human cytochrome P450 reductase (Homo sapiens, UniProt P16435); assay: Redox cycling catalyzed by purified human cytochrome P450 reductase; format: biochemical
T1 sequence (P16435 1-677): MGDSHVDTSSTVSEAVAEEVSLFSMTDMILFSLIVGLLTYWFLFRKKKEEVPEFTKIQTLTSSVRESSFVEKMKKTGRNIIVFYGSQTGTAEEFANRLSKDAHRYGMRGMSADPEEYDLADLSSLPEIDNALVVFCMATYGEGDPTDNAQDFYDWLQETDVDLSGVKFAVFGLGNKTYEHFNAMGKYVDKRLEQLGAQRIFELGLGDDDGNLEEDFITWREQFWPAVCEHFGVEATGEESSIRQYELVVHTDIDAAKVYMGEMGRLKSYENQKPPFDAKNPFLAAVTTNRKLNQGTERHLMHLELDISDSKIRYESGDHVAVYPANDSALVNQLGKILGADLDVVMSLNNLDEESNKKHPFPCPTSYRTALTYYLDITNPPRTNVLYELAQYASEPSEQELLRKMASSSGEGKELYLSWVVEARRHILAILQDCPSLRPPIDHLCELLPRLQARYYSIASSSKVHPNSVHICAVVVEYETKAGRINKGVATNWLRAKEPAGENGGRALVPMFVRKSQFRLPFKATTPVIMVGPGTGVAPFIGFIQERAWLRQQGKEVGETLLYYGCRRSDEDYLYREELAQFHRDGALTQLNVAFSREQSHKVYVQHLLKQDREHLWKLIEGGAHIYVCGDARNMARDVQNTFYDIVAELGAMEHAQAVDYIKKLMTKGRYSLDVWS

[3] = cited from earlier work; for hepatotoxicity rank within the BA series: series GM, 17AAG, 17DMAG, 17AG, 17AEP-GA
[4] = target: T2, NADPH-cytochrome P450 reductase (mouse liver microsomes) (Mus musculus, UniProt P37040); assay: One-electron redox cycling of BAs in mouse liver microsomes (oxygen consumption rate); format: in vitro ADME; details: NADPH- or NADH-dependent, 50 μM BA
T2 construct: Using human and mouse liver microsomes and either NADPH or NADH as cofactors; from tissue; host or cells: mouse liver microsomes
T2 sequence (P37040 1-678): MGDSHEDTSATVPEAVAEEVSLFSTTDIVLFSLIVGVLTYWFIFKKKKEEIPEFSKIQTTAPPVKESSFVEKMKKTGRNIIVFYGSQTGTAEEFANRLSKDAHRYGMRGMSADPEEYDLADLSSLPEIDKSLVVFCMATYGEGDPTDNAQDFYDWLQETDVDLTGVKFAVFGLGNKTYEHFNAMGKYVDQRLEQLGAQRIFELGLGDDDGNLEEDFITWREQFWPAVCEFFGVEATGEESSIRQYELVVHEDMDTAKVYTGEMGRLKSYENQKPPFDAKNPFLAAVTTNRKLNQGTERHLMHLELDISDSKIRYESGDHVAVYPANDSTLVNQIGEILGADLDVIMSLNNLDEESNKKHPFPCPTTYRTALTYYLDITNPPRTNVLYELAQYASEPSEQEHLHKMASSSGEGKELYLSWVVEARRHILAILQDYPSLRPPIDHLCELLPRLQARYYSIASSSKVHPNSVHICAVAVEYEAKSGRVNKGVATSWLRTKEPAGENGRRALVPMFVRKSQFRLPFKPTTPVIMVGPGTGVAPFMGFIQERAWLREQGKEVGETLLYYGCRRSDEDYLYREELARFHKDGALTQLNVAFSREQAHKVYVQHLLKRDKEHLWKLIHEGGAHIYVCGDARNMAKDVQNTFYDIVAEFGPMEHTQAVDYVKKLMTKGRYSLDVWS
Description: (§1) Using human and mouse liver microsomes and either NADPH or NADH as cofactors, the relative one-electron redox cycling rates of BAs mediated by NADPH-cytochrome P450 reductase were determined by measuring the rates of oxygen consumption. The rates of oxygen consumption and NAD(P)H oxidation were measured as indicators of the relative redox cycling rates of BAs. […] The oxygen consumption rate was measured using a Clark electrode (air tight) over 10 min.

[5] = target: T3, NADPH-cytochrome P450 reductase (human liver microsomes) (Homo sapiens, UniProt P16435); assay: One-electron redox cycling of BAs in human liver microsomes (oxygen consumption rate); format: in vitro ADME; details: NADPH- or NADH-dependent, 50 μM BA
T3 construct: Using human and mouse liver microsomes and either NADPH or NADH as cofactors; from tissue; host or cells: human liver microsomes
T3 sequence (P16435 1-677): T1 sequence (P16435 1-677)
Description: as §1

[6] = 50 μM BA, 5 mM reduced glutathione, pH 7.4, room temperature

Compound: CO[C@H]1/C=C\C=C(/C)C(=O)NC2=CC(=O)C(NCCN3CCCC3)=C(C[C@@H](C)C[C@H](OC)[C@H](O)[C@@H](C)/C=C(\C)[C@@H]1OC(N)=O)C2=O [17AEP-GA, 17-demethoxy-17-[[2-(pyrrolidin-1-yl)ethyl]amino]-geldanamycin]
- relative rate of glutathione conjugate formation (rank order in the series) [1, 6]: GM>17DMAG>17AEP-GA>17AAG and 17AG
- fraction conjugated with glutathione ([1]; 50 μM BA, 5 mM reduced glutathione, pH 7.4, room temperature, within 10 h): about 90%

Compound: CO[C@H]1/C=C\C=C(/C)C(=O)NC2=CC(=O)C(NCCN(C)C)=C(C[C@@H](C)C[C@H](OC)[C@H](O)[C@@H](C)/C=C(\C)[C@@H]1OC(N)=O)C2=O [17DMAG, 17-demthoxy-17-[[2-(dimethylamino)ethyl]amino]-geldanamycin]
- rate of redox cycling [2]: greatest rate
- 17DMAGH2-SG conjugate detection [1, 6]: not detected
- relative rate of glutathione conjugate formation (rank order in the series) [1, 6]: GM>17DMAG>17AEP-GA>17AAG and 17AG
- 17DMAG-SG conjugate formed ([1]; 50 μM BA, 5 mM reduced glutathione, pH 7.4, room temperature, within 4 h): approximately 47 μM

Compound: C=CCNC1=C2C[C@@H](C)C[C@H](OC)[C@H](O)[C@@H](C)/C=C(\C)[C@H](OC(N)=O)[C@@H](OC)/C=C\C=C(/C)C(=O)NC(=CC1=O)C2=O [17AAG, 17-(allylamino)-17-demethoxygeldanamycin]
- formation of glutathione conjugate (speed, in words) [1, 6]: very slow
- hepatotoxicity rank within the BA series [3]: least hepatotoxic

Further lines, with some results ahead:

- relative rate of metabolism (one-electron redox cycling, oxygen consumption) [4]: relatively rapid rate
- relative rate of glutathione conjugate formation (rank order in the series) ([1]; 50 μM, pH 7.4): GM>17DMAG>17AEP-GA>17AAG and 17AG
- GMH2-SG conjugate formed ([1]; 5 min, 50 μM, pH 7.4): approximately 45 μM
- relative rate of metabolism (one-electron redox cycling, oxygen consumption) [5]: relatively rapid rate
Compound: COC1=C2C[C@@H](C)C[C@H](OC)[C@H](O)[C@@H](C)/C=C(\C)[C@H](OC(N)=O)[C@@H](OC)/C=C\C=C(/C)C(=O)NC(=CC1=O)C2=O [GM, geldanamycin]
- hepatotoxicity ([3]; administration, Phase I clinical trials): unacceptable hepatotoxicity
- hepatotoxicity rank within the BA series [3]: most hepatotoxic

- formation of glutathione conjugate (speed, in words) [1, 6]: very slow
- relative rate of glutathione conjugate formation (rank order in the series) [1, 6]: GM>17DMAG>17AEP-GA>17AAG and 17AG
Compound: CO[C@H]1/C=C\C=C(/C)C(=O)NC2=CC(=O)C(N)=C(C[C@@H](C)C[C@H](OC)[C@H](O)[C@@H](C)/C=C(\C)[C@@H]1OC(N)=O)C2=O [17AG, 17-(amino)-17-demethoxygeldanamycin]
